Assay results published in patent publication US20260028343A1, “Substituted Imidazopyrazine Compounds as Ligand Directed Degraders of IRAK3” (Celgene Corporation, priority 2022, published 2026).

Target: T1, IRAK3-ePL (Homo sapiens, UniProt Q9Y616)
T1 construct: expressed in transfected cells; host or cells: 293T CRBN OE / GSPT1 G575N KI cells, lentiviral transduction, puromycin selection
Experiment: IRAK3-ePL Overexpressing Degradation Assay
Assay type: cell-based
Details: IRAK3-ePL Lenti-X 293T CRBN/GSPT1 G575N cells, overnight incubation; for Dmax: HEK-293T, top dose 10 μM, maximum percentage loss of target protein; for DC50: read-out: IRAK3 ePL degradation EC50
Description: Stable cell lines were generated by the following protocol. 3×10^5 Lenti-X 293T cells (Clonetech) were plated in 0.8 mL of media in a 12-well plate and incubated overnight at 37° C./5% CO2. Packaging plasmid (0.4 μg, pMD), envelope plasmid (0.4 μg, pSP), and lentiviral transfer IRAK3-ePL plasmid (0.8 μg, IRAK3 sequence NM_007199.3) were mixed in 0.1 mL of Opti-MEM and incubated for 5 min. Simultaneously, 2.4 μL of Lipofectamine 2000 (Invitrogen) was added to 0.1 mL of Opti-MEM (Gibco) and incubated for 5 min. The plasmid DNA and lipofectamine were combined and the mixture was allowed to incubate for 20 min.DNA:Lipofectamine Opti-MEM mixtures were then added to previously plated cells dropwise and the cells were incubated for ˜16 h at 37° C./5% CO2. Following incubation, the media was removed and 1.2 mL of fresh media was added per well. Lenti-X 293T cells were incubated for ˜30 h at 37° C./5% CO2. 0.5×10^6 293T^CRBN OE/GSPT1 G575N KI cells were plated in 0.5 mL of media/well of a 12-well plate and incubated for ˜16 h at 37° C./5% CO2. Following incubation, media was removed from the Lenti-X 293T wells and passed through a […]. Part of the viral supernatant was used to transduce cells and the rest was stored at −80° C. Viruses were then added individually (0.5 mL virus) to each well of the 293T^CRBN OE/GSPT1 G575N KI cells, followed by addition of polybrene (10 mg/mL Millipore) to each well at a final concentration of 5.0 μg/mL. Cells were incubated for ˜24 h at 37° C./5% CO2. After aspirating media off plates, cells were washed with DPBS, trypsinized and plated in a 10 cm dish in 15 mL of media and 1 μg/mL puromycin. Following incubation of cells for ˜72 h at 37° C./5% CO2, media was aspirated off plates, and cells were washed with DPBS and trypsinized. The cells were plated in a 15 cm dish in 40 mL of media with 1.0 μg/mL Puromycin (Gibco) and incubated for ˜72 h at 37° C./5% CO2. Following incubation, media was removed and cells were washed with DPBS and trypsinized. The majority of cells were resuspended in Invitrogen freezing media and stored away (˜6-8×10^6 cells/vial).
IRAK3-ePL cellular dose response curve degradation assays were performed by the following protocol. Compounds to be tested were dispensed into a white 384-well tissue-culture treated plate using an acoustic liquid handler. Dilutions were prepared based on a 25 μL assay volume in duplicate 10 point 3-fold serial dilutions starting with a 10 μM dose. Negative control wells were included, which only contain 0.2% DMSO to calculate 100% signal. Positive control wells containing 30 μM Ataluren (luciferase inhibitor) were included to calculate the background signal level. All wells were backfilled to a final DMSO concentration of 0.2% to ensure DMSO uniformity across wells. IRAK3-ePL expressing cells (IRAK3-ePL Lenti-X 293T^CRBN/GSPT1 G575N) were washed, trypsinized, counted, and resuspended in fresh DMEM (Gibco) to give a cell concentration of 200,000 cells/mL. 25 μL of cells (5,000 cells/well) were dispensed into the wells of the 384-well plate prespotted with compounds in the previous step and incubated overnight at 37° C./5% CO2. Following incubation, the 384-well plate was taken out of the incubator and left at room temperature for 30 min. InCELL hunter reagent was prepared according to manufacturer's instructions (EA reagent, lysis buffer, and substrate reagent in a 1:1:4 ratio, Cat #96-0002, DiscoverX), which was added to the 384-well plate 25 μL per well. Following the incubation of the plate for 1 h at room temperature, the luminescence signal was read using a ViewLux plate reader. Data was processed and analyzed in ActivityBase software. In short, the average luminescence values of the positive control wells were subtracted from the rest of the wells for background correction, and all luminescence values were normalized to the DMSO control wells. The average value of the DMSO control wells was set to equal 100% of the relative IRAK3-ePL protein levels. […]

| Compound | Dmax [%] | DC50 [nM] |
| --- | --- | --- |
| Cc1cccc(-c2cnc(Nc3ccc(N4CCN(C(=O)COc5cccc6c5C(=O)N(C5CCC(=O)NC5=O)C6=O)CC4)cc3)c3nccn23)c1 (stereo not drawn) [Compound 1, 2-(2,6-Dioxopiperidin-3-yl)-4-(2-oxo-2-(4-(4-((5-(m-tolyl)imidazo[1,2-a]pyrazin-8-yl)amino)phenyl)piperazin-1-yl)ethoxy)isoindoline-1,3-dione] | 11 |  |
| Cc1cccc(-c2cnc(Nc3ccc(N4CCN(C(=O)CCCNC(=O)COc5cccc6c5C(=O)N(C5CCC(=O)NC5=O)C6=O)CC4)cc3)c3nccn23)c1 (stereo not drawn) [Compound 2, 2-((2-(2,6-Dioxopiperidin-3-yl)-1,3-dioxoisoindolin-4-yl)oxy)-N-(4-oxo-4-(4-(4-((5-(m-tolyl)imidazo[1,2-a]pyrazin-8-yl)amino)phenyl)piperazin-1-yl)butyl)acetamide] | 10 |  |
| Cc1cccc(-c2cnc(Nc3ccc(N4CCN(C(=O)CCOCCNC(=O)COc5cccc6c5C(=O)N(C5CCC(=O)NC5=O)C6=O)CC4)cc3)c3nccn23)c1 (stereo not drawn) [Compound 3, 2-((2-(2,6-Dioxopiperidin-3-yl)-1,3-dioxoisoindolin-4-yl)oxy)-N-(2-(3-oxo-3-(4-(4-((5-(m-tolyl)imidazo[1,2-a]pyrazin-8-yl)amino)phenyl)piperazin-1-yl)propoxy)ethyl)acetamide] | 14 |  |
| Cc1cccc(-c2cnc(Nc3ccc(N4CCN(C(=O)COc5ccc6c(c5)C(=O)N(C5CCC(=O)NC5=O)C6=O)CC4)cc3)c3nccn23)c1 (stereo not drawn) [Compound 4, 2-(2,6-Dioxopiperidin-3-yl)-5-(2-oxo-2-(4-(4-((5-(m-tolyl)imidazo[1,2-a]pyrazin-8-yl)amino)phenyl)piperazin-1-yl)ethoxy)isoindoline-1,3-dione] | 22 |  |
| Cc1cccc(-c2cnc(Nc3ccc(N4CCN(C(=O)CCCNC(=O)COc5ccc6c(c5)C(=O)N(C5CCC(=O)NC5=O)C6=O)CC4)cc3)c3nccn23)c1 (stereo not drawn) [Compound 5, 2-((2-(2,6-Dioxopiperidin-3-yl)-1,3-dioxoisoindolin-5-yl)oxy)-N-(4-oxo-4-(4-(4-((5-(m-tolyl)imidazo[1,2-a]pyrazin-8-yl)amino)phenyl)piperazin-1-yl)butyl)acetamide] | 21 |  |
| Cc1cccc(-c2cnc(Nc3ccc(N4CCN(C(=O)CCOCCNC(=O)COc5ccc6c(c5)C(=O)N(C5CCC(=O)NC5=O)C6=O)CC4)cc3)c3nccn23)c1 (stereo not drawn) [Compound 6, 2-((2-(2,6-Dioxopiperidin-3-yl)-1,3-dioxoisoindolin-5-yl)oxy)-N-(2-(3-oxo-3-(4-(4-((5-(m-tolyl)imidazo[1,2-a]pyrazin-8-yl)amino)phenyl)piperazin-1-yl)propoxy)ethyl)acetamide] | 39 |  |
| Cc1cccc(-c2cnc(Nc3ccc(N4CCN(CCNC(=O)COc5ccc6c(c5)C(=O)N(C5CCC(=O)NC5=O)C6=O)CC4)cc3)c3nccn23)c1 (stereo not drawn) [Compound 7, 2-((2-(2,6-Dioxopiperidin-3-yl)-1,3-dioxoisoindolin-5-yl)oxy)-N-(2-(4-(4-((5-(m-tolyl)imidazo[1,2-a]pyrazin-8-yl)amino)phenyl)piperazin-1-yl)ethyl)acetamide] | 51 | 1100 |
| Cc1cccc(-c2cnc(Nc3cnn(C4CCN(CCNC(=O)COc5ccc6c(c5)C(=O)N(C5CCC(=O)NC5=O)C6=O)CC4)c3)c3nccn23)c1 (stereo not drawn) [Compound 8, 2-((2-(2,6-Dioxopiperidin-3-yl)-1,3-dioxoisoindolin-5-yl)oxy)-N-(2-(4-(4-((5-(m-tolyl)imidazo[1,2-a]pyrazin-8-yl)amino)-1H-pyrazol-1-yl)piperidin-1-yl)ethyl)acetamide] | 78 | 17 |
| Cc1cccc(-c2cnc(Nc3cccc(C4CCN(CCNC(=O)COc5ccc6c(c5)C(=O)N(C5CCC(=O)NC5=O)C6=O)CC4)c3)c3nccn23)c1 (stereo not drawn) [Compound 9, 2-((2-(2,6-Dioxopiperidin-3-yl)-1,3-dioxoisoindolin-5-yl)oxy)-N-(2-(4-(3-((5-(m-tolyl)imidazo[1,2-a]pyrazin-8-yl)amino)phenyl)piperidin-1-yl)ethyl)acetamide] | 18 |  |
| Cc1cccc(-c2cnc(Nc3ccc(C4CCN(CCNC(=O)COc5ccc6c(c5)C(=O)N(C5CCC(=O)NC5=O)C6=O)CC4)cc3)c3nccn23)c1 (stereo not drawn) [Compound 10, 2-((2-(2,6-Dioxopiperidin-3-yl)-1,3-dioxoisoindolin-5-yl)oxy)-N-(2-(4-(4-((5-(m-tolyl)imidazo[1,2-a]pyrazin-8-yl)amino)phenyl)piperidin-1-yl)ethyl)acetamide] | 17 |  |
| Cc1cccc(-c2cnc(Nc3cccc(N4CCN(CCNC(=O)COc5ccc6c(c5)C(=O)N(C5CCC(=O)NC5=O)C6=O)CC4)c3)c3nccn23)c1 (stereo not drawn) [Compound 11, 2-((2-(2,6-Dioxopiperidin-3-yl)-1,3-dioxoisoindolin-5-yl)oxy)-N-(2-(4-(3-((5-(m-tolyl)imidazo[1,2-a]pyrazin-8-yl)amino)phenyl)piperazin-1-yl)ethyl)acetamide] | 22 |  |
| Cc1cccc(-c2cnc(Nc3cnn(C4CCN(C5CCC6(CC5)CCN(C(=O)c5ccc7c(c5)CN(C5CCC(=O)NC5=O)C7=O)CC6)CC4)c3)c3nccn23)c1 (stereo not drawn) [Compound 12, 3-(1-Oxo-5-(9-(4-(4-((5-(m-tolyl)imidazo[1,2-a]pyrazin-8-yl)amino)-1H-pyrazol-1-yl)piperidin-1-yl)-3-azaspiro[5.5]undecane-3-carbonyl)isoindolin-2-yl)piperidine-2,6-dione] | 76 | 28 |
